According to ChEMBL document CHEMBL3137667, “[Drug-induced liver injury; fourteenth updated edition of the bibliographic database of liver injuries and related drugs]” (Gastroenterol Clin Biol, 2004):

What was measured:
[1] = human, serum
[2] = Times to onset, minimal and maximal, observed in the indexed observations. [column 'DELAI' in source]; conditions: human
[3] = human
[4] = human; remark: listed apart in the source
[5] = Highest frequency of moderate liver toxicity observed during clinical trials, expressed as a percentage. [column '% BIOL' in source]; conditions: human
[6] = human; remark: listed apart in the source
[7] = human; remark: listed apart in the source
[8] = human; remark: listed apart in the source
[9] = human; remark: listed apart in the source
[10] = human, serum, 4383 h
[11] = Highest frequency of acute liver toxicity observed during clinical trials, expressed as a percentage. [column '% AIGUE' in source]; conditions: human
[12] = human; remark: listed apart in the source
[13] = human; remark: listed apart in the source
[14] = human; remark: listed apart in the source
[15] = human, serum; remark: listed apart in the source
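Wherever Hepatotoxicity (association with vascular disease) is given: count of indexed literature references reporting vascular liver injury in humans, e.g. peliosis hepatitis, hepatic veno-occlusive disease or Budd-Chiari syndrome.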
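Wherever Hepatotoxicity (benign tumour) is given: value is a count of indexed literature references citing a benign tumour confirmed by histopathology.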
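Wherever Hepatotoxicity (choleostasis) is given: human cholestatic liver injury, shown by histopathology or by peak ALT or AST elevation over alkaline phosphatase ratio below 2, value counts indexed literature reports.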
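Wherever Hepatotoxicity (chronic liver disease) is given: chronic liver injury confirmed by histopathology or persistently raised serum aminotransferase activity beyond 6 months, value given as the count of indexed literature references.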
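Wherever Hepatotoxicity (cirrhosis) is given: value is a count of indexed literature references reporting cirrhosis confirmed by histopathology.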
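Wherever Hepatotoxicity (cytolytic) is given: human cytolytic liver injury, shown by histopathology or by a ratio above 5 of peak ALT or AST elevation to alkaline phosphatase elevation, value counts indexed references.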
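Wherever Hepatotoxicity (granulomatous hepatitis) is given: value is a count of indexed literature references reporting granulomatous liver disease confirmed by histopathology.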
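Wherever Hepatotoxicity (malignant tumour) is given: malignant tumour confirmed by histopathology, value gives the count of indexed literature references reporting it.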
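Wherever Hepatotoxicity (severe hepatitis) is given: human clinical data: severe hepatitis, meaning potentially life-threatening liver failure or clinically observed cases, the value counts how many indexed literature references report it.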
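Wherever Hepatotoxicity (steatosis) is given: steatosis confirmed by histopathology, value is the count of indexed references.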

| Structure (SMILES) | Hepatotoxicity (acute) [1] | Hepatotoxicity (time to onset) [2] | Hepatotoxicity (cirrhosis) [3] | Hepatotoxicity (cytolytic) [4] | Hepatotoxicity (moderate) [5] [%] | Hepatotoxicity (severe hepatitis) [6] | Hepatotoxicity (steatosis) [7] | Hepatotoxicity (malignant tumour) [8] | Hepatotoxicity (granulomatous hepatitis) [9] | Hepatotoxicity (chronic liver disease) [10] | Hepatotoxicity (acute) [11] [%] | Hepatotoxicity (benign tumour) [12] | Hepatotoxicity (association with vascular disease) [13] | Hepatotoxicity (choleostasis) [14] | Hepatotoxicity (moderate) [15] |
| --- | --- | --- | --- | --- | --- | --- | --- | --- | --- | --- | --- | --- | --- | --- | --- |
| Cc1cc(C(=O)NNCc2ccccc2)no1 [ISOCARBOXAZID] | 4 | 1 month - 4 months | 0 | 4 | 0 | 1 | 0 | 0 | 0 | 0 | 0 | 0 | 0 | 2 | 1 |
| CC(C)[N+](C)(CCC(C(N)=O)(c1ccccc1)c1ccccc1)C(C)C [ISOPROPAMIDE] | 1 | 3 months | 0 | 1 | 0 | 0 | 0 | 0 | 0 | 0 | 0 | 0 | 0 | 0 | 0 |
| CO[C@@H]1[C@@H](O[C@@H]2O[C@H](C)[C@@H](O[C@H]3C[C@@](C)(O)[C@@H](OC(=O)CC(C)C)[C@H](C)O3)[C@H](N(C)C)[C@H]2O)[C@@H](CC=O)C[C@@H](C)[C@@H](O)/C=C/C=C/C[C@@H](C)OC(=O)C[C@H]1OC(C)=O [JOSAMYCIN] | 9 | 5 days - 2 weeks | 0 | 6 | 20 | 0 | 0 | 0 | 0 | 0 | 0 | 0 | 0 | 5 | 5 |
| O=C(c1ccccc1)c1ccc2n1CCC2C(=O)O (stereo not given) [KETOROLAC] | 1 | 1 day - 10 days | 0 | 1 | 32 | 0 | 0 | 0 | 0 | 0 | 1 | 0 | 0 | 1 | 1 |
| N[C@@H](Cc1ccc(O)c(O)c1)C(=O)O [LEVODOPA] | 4 | < 3 months | 0 | 0 | 9 | 0 | 1 | 0 | 0 | 0 | 3.3 | 0 | 0 | 1 | 1 |
| C[C@H]1COc2c(N3CCN(C)CC3)c(F)cc3c(=O)c(C(=O)O)cn1c23.C[C@H]1COc2c(N3CCN(C)CC3)c(F)cc3c(=O)c(C(=O)O)cn1c23.O [LEVOFLOXACIN] | 7 | 2 days - 3 weeks | 0 | 6 | 30 | 5 | 0 | 0 | 0 | 0 | 0 | 0 | 0 | 2 | 17 |
| COc1ccc2c(c1)N(C[C@H](C)CN(C)C)c1ccccc1S2 [LEVOMEPROMAZINE] | 4 | 1.2 months - 2 months | 0 | 1 | 4.5 | 0 | 0 | 0 | 0 | 0 | 2.7 | 0 | 0 | 3 | 2 |
| O=C(O)Cc1cn(-c2ccccc2)nc1-c1ccc(Cl)cc1 [LONAZOLAC] | 1 | 1 month | 0 | 0 | 0 | 0 | 0 | 0 | 0 | 0 | 1.3 | 0 | 0 | 0 | 0 |
| CN1CCN(C2=Nc3ccccc3Oc3ccc(Cl)cc32)CC1 [LOXAPINE] | 1 | 1 week - 3 weeks | 0 | 0 | 0 | 0 | 0 | 0 | 0 | 0 | 0 | 0 | 0 | 1 | 2 |
| CN(C)[C@@H]1C(O)=C(C(=O)NCNCCCC[C@H](N)C(=O)O)C(=O)[C@@]2(O)C(O)=C3C(=O)c4c(O)cccc4[C@@](C)(O)[C@H]3C[C@@H]12 [LYMECYCLINE] | 1 | 2.4 years | 0 | 1 | 0 | 0 | 0 | 0 | 0 | 0 | 0 | 0 | 0 | 0 | 0 |
| CN(C)CC(Oc1ccccc1)Oc1ccccc1 [MEDIFOXAMINE] | 1 | 6 days | 0 | 1 | 0 | 2 | 0 | 0 | 0 | 0 | 0 | 0 | 0 | 0 | 0 |
| CCCC(C)(COC(N)=O)COC(N)=O [MEPROBAMATE] | 2 | 2 weeks - 6 months | 0 | 0 | 0 | 0 | 0 | 0 | 0 | 0 | 0 | 0 | 0 | 1 | 0 |
| C[C@H]1CC(=O)C[C@@H]2CC[C@H]3[C@@H]4CC[C@H](O)[C@@]4(C)CC[C@@H]3[C@]21C [MESTEROLONE] | 1 | 2 years | 0 | 1 | 0 | 0 | 0 | 0 | 0 | 0 | 0 | 0 | 0 | 0 | 0 |
| CNC1Cc2ccccc2N(C)c2ccccc21 (stereo not given) [METAPRAMINE] | 1 | 3 weeks - 3 months | 0 | 1 | 0 | 0 | 1 | 0 | 0 | 0 | 0 | 0 | 0 | 1 | 0 |
